This passage reports IC50 and solubility in water results from EP3098228A1, “POLYOXOMOLYBDATE-BISPHOSPHONATE COMPLEX CONTAINING A HETEROMETALLIC ION DIFFERENT FROM MOLYBDENUM” (CENTRE NATIONAL DE LA RECHERCHE SCIENTIFIQUE, priority 2015, dated 2016).

For orientation: IC50 means the midpoint of a concentration-inhibition curve.

In data set [1] the test system is MCF-7. Conditions: literature values, cited from earlier work.
Data set [2] has as its system Human tumor cell lines MCF-7 (breast adenocarcinoma). Description: Cell-growth inhibition assay (MTT cell proliferation assay, 4 days). Format: cell-based. Particulars: MCF-7, 4 days incubation. Here is the method:
Cells were plated at a density of 5000 cells/well.
Results are gathered in table 3 hereinafter. The results are shown on a molar basis (IC50 values, in µM) as well as on a per-bisphosphonate basis, which is more logical when comparisons are to be made with the pure bisphosphonates.
On the technique in general: Formazan colour is commonly taken as a measure of viable cells.

In data set [3] the test system is MCF-7. Description: Cell growth "rescue" experiments with geranylgeraniol (GGOH). Format: cell-based, Human. The protocol: Addition of geranylgeraniol (GGOH) was tested on Mo4Zol2Mn.
Protocol Cell growth "rescue" experiments with geranylgeraniol were carried out as described previously, and namely in Y. Zhang, et al J. Am. Chem. Soc. 2009, 131, 51.
An increase in the IC50 indicates a direct role for the bisphosphonate moiety in cell growth inhibition.

Data set [4] is described as follows: Solubility in water (remark in the solid state NMR section). Format: physicochemical. The source says: The broadening could be due either to the low crystallinity in Mo12(AlePy)4Pt4 and/or, a dynamic disorder, since we also observe a much less efficient CP transfer in CPMAS experiments when compared with Mo12(AlePy)4.
Setting [5] is: measurement conditions not strictly identical to Table 3, read-out: IC50.
Setting [6] is: per bisphosphonate, read-out: IC50 per BP.

Where two headings read alike, the source gives them in different places.

Turning to `NCCCC(O)(P(=O)(O)O)P(=O)(O)O` [Ale, alendronate], the IC50 in the data set with MCF-7 [1] (setting [5]) is 130 ± 2.2 µM; with MCF-7 [1] (setting [6]) it was 130 µM.

As for `[Cl][Mn][Cl]` [MnCl2], the concentration for half-maximal inhibition (IC50) in data set [2] (molar basis, listed as Mn(II)Cl2, read-out: IC50) was around 740 µM; in data set [2] (molar basis, read-out: IC50) it was 740 ± 140 µM.

Take `O=P(O)(O)C(O)(Cn1ccnc1)P(=O)(O)O` [Zol, zoledronate]: the IC50 in data set [2] (Homo sapiens, MCF7, 96 h, molar basis, read-out: IC50) was 15 ± 2.6 µM; in data set [2] (Homo sapiens, MCF7, 96 h, per-bisphosphonate basis, read-out: IC50 per BP) it was 15 ± 2.6 µM; in the data set with MCF-7 [3] (Homo sapiens, MCF7, with addition of geranylgeraniol (GGOH), read-out: IC50 +GGOH), 48 µM; with MCF-7 [3] (Homo sapiens, MCF7, without GGOH, read-out: IC50), 15 µM; in the data set on MCF-7 [1] (setting [5]), 7.7 ± 2.6 µM; with MCF-7 [1] (setting [6]), 7.7 µM.

Consider “Na3{Na(Mo3O8)4[O3PCC3H6NH2CH2(C5H5N)(O)PO3]4} .25H20 [Mo12(AlePy)4]”, for which the solubility in water result in data set [4] is on record as “essentially insoluble in water”.

Regarding “Rb(NH4)4[(Mo2O6)2(O3PC(CH2C3H4N2)(O)PO3)2Mn].14H2O [Mo4Zol2Mn]”, the IC50 in data set [2] (molar basis, read-out: IC50) was 1.3 ± 0.24 µM; in data set [2] (per-bisphosphonate basis, read-out: IC50 per BP), 2.6 ± 0.48 µM; with MCF-7 [3] (with addition of geranylgeraniol (GGOH), read-out: IC50 +GGOH), 7.6 µM; with MCF-7 [3] (without GGOH, read-out: IC50), 1.3 µM.
